Measured values published in PubChem BioAssay (NCI).
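Values below derive from 48-hour exposures of cells grown in 96-well plates, with endpoints linearly interpolated between the two concentrations bracketing the appropriate inhibition level. GI50 marks 50% less growth. TGI marks complete inhibition of growth.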

Tests used:
Assay in all cases: growth of human tumour cells (NCI), 48 h; in the data active means GI50 below about 0.43 µM; inactive means the rest
[1] = system: HCC-2998 colon
[2] = system: MOLT-4 leukemia
[3] = system: SR leukemia
[4] = system: NCI/ADR-RES ovarian
[5] = system: RPMI-8226 leukemia
[6] = system: COLO 205 colon
[7] = system: NCI-H226 lung
[8] = system: BT-549 breast
[9] = system: SN12C renal
[10] = system: OVCAR-3 ovarian
[11] = system: SW-620 colon
[12] = system: EKVX NSCLC
[13] = system: HCT-116 colon
[14] = system: A498 renal
[15] = system: CCRF-CEM leukemia
[16] = system: CAKI-1 renal
[17] = system: SNB-75 CNS
[18] = system: KM12 colon
[19] = system: UACC-62 melanoma
[20] = system: LOX IMVI melanoma
[21] = system: T-47D breast
[22] = system: OVCAR-5 ovarian
[23] = system: SK-MEL-5 melanoma
[24] = system: K-562 leukemia
[25] = system: PC-3 prostate
[26] = system: SK-MEL-2 melanoma
[27] = system: ACHN renal
[28] = system: UO-31 renal
[29] = system: MALME-3M melanoma
[30] = system: NCI-H23 lung
[31] = system: RXF 393 renal
[32] = system: SNB-19 CNS
[33] = system: OVCAR-4 ovarian
[34] = system: U251 CNS
[35] = system: HT29 colon
[36] = system: NCI-H522 lung
[37] = system: HOP-92 NSCLC
[38] = system: UACC-257 melanoma
[39] = system: MDA-MB-231 breast
[40] = system: NCI-H460 lung
[41] = system: DU-145 prostate
[42] = system: OVCAR-8 ovarian
[43] = system: MCF7 breast
[44] = system: HOP-62 NSCLC
[45] = system: 786-0 renal
[46] = system: A549 NSCLC
[47] = system: SF-539 CNS
[48] = system: SF-268 CNS
[49] = system: TK-10 renal
[50] = system: SF-295 CNS
[51] = system: HS 578T breast
[52] = system: SK-OV-3 ovarian
[53] = system: IGROV1 ovarian
[54] = system: HCT-15 colon
[55] = system: MDA-MB-435
[56] = system: SK-MEL-28 melanoma

CSC1=Nc2c(c(C)c(-c3ccccc3)n2COC(CO)CO)C2=NC(=O)CC(C)N12 (configuration not stated)
> 100 µM: TGI [1] | TGI [2] | TGI [3] | TGI [4] | TGI [5] | TGI [6] | TGI [7] | TGI [8] | TGI [9] | TGI [10] | TGI [11] | TGI [12] | TGI [13] | TGI [14] | TGI [15] | TGI [16] | TGI [17] | TGI [18] | TGI [19] | TGI [20] | TGI [21] | TGI [22] | TGI [23] | TGI [24] | TGI [25] | TGI [26] | TGI [27] | TGI [28] | TGI [29] | TGI [30] | TGI [31] | TGI [32] | TGI [33] | TGI [34] | TGI [35] | TGI [36] | TGI [37] | TGI [38] | TGI [39] | TGI [40] | TGI [41] | TGI [42] | TGI [43] | TGI [44] | TGI [45] | TGI [46] | TGI [47] | TGI [48] | TGI [49] | TGI [50] | TGI [51] | TGI [52] | TGI [53] | TGI [54] | TGI [55] | TGI [56]
inactive: GI50 [1] > 100 µM | GI50 [2] > 100 µM | GI50 [3] > 100 µM | GI50 [4] > 100 µM | GI50 [5] > 100 µM | GI50 [6] > 100 µM | GI50 [7] > 100 µM | GI50 [8] > 100 µM | GI50 [9] > 100 µM | GI50 [10] > 100 µM | GI50 [11] > 100 µM | GI50 [12] > 100 µM | GI50 [13] > 100 µM | GI50 [14] > 100 µM | GI50 [15] > 100 µM | GI50 [16] > 100 µM | GI50 [17] 85.3 µM | GI50 [18] > 100 µM | GI50 [19] > 100 µM | GI50 [20] > 100 µM | GI50 [21] > 100 µM | GI50 [22] > 100 µM | GI50 [23] > 100 µM | GI50 [24] > 100 µM | GI50 [25] > 100 µM | GI50 [26] > 100 µM | GI50 [27] > 100 µM | GI50 [28] > 100 µM | GI50 [29] > 100 µM | GI50 [30] > 100 µM | GI50 [31] > 100 µM | GI50 [32] > 100 µM | GI50 [33] > 100 µM | GI50 [34] > 100 µM | GI50 [35] > 100 µM | GI50 [36] > 100 µM | GI50 [37] > 100 µM | GI50 [38] > 100 µM | GI50 [39] > 100 µM | GI50 [40] > 100 µM | GI50 [41] > 100 µM | GI50 [42] > 100 µM | GI50 [43] > 100 µM | GI50 [44] 98.1 µM | GI50 [45] > 100 µM | GI50 [46] > 100 µM | GI50 [47] > 100 µM | GI50 [48] > 100 µM | GI50 [49] > 100 µM | GI50 [50] > 100 µM | GI50 [51] > 100 µM | GI50 [52] > 100 µM | GI50 [53] > 100 µM | GI50 [54] > 100 µM | GI50 [55] > 100 µM | GI50 [56] > 100 µM
